Results published in publication PMC7590683, “Xanthine oxidase inhibitory activity of a new isocoumarin obtained from Marantodes pumilum var. pumila leaves” (BMC Complementary Medicine and Therapies, 2020).
Read-outs that look alike come from different tables or passages of the source. Values belong to the compound of their own block, whether it stands above or below them.

Legend:
xanthine oxidase [1] = tested on: xanthine oxidase; set-up: method as in PMID 18201686; settings: cited from earlier work
xanthine oxidase [2] = tested on: xanthine oxidase; set-up: method as in PMID 30189275; settings: better than allopurinol; cited from earlier work
xanthine oxidase [3] = biological target: T1, xanthine oxidase (Bos taurus, UniProt P80457); experiment: In vitro xanthine oxidase inhibitory assay; assay type: biochemical, cow; settings: for inhibition at 6.25 µg/mL: 6.25 μg/mL; for inhibition at 12.5 µg/mL: 12.5 μg/mL; for inhibition at 25 µg/mL: 25 μg/mL; for inhibition at 50 µg/mL: 50 μg/mL; for IC50: mean ± S.E.M., n = 3, read-out: IC50 value of xanthine oxidase inhibition (converted)
T1 construct: xanthine oxidase (cow’s milk) were purchased from Sigma-Aldrich Chemicals; purchased Sigma-Aldrich Chemicals (St. Louis, MO, USA); host or cells: cow's milk (natural source)
T1 sequence (P80457 whole entry): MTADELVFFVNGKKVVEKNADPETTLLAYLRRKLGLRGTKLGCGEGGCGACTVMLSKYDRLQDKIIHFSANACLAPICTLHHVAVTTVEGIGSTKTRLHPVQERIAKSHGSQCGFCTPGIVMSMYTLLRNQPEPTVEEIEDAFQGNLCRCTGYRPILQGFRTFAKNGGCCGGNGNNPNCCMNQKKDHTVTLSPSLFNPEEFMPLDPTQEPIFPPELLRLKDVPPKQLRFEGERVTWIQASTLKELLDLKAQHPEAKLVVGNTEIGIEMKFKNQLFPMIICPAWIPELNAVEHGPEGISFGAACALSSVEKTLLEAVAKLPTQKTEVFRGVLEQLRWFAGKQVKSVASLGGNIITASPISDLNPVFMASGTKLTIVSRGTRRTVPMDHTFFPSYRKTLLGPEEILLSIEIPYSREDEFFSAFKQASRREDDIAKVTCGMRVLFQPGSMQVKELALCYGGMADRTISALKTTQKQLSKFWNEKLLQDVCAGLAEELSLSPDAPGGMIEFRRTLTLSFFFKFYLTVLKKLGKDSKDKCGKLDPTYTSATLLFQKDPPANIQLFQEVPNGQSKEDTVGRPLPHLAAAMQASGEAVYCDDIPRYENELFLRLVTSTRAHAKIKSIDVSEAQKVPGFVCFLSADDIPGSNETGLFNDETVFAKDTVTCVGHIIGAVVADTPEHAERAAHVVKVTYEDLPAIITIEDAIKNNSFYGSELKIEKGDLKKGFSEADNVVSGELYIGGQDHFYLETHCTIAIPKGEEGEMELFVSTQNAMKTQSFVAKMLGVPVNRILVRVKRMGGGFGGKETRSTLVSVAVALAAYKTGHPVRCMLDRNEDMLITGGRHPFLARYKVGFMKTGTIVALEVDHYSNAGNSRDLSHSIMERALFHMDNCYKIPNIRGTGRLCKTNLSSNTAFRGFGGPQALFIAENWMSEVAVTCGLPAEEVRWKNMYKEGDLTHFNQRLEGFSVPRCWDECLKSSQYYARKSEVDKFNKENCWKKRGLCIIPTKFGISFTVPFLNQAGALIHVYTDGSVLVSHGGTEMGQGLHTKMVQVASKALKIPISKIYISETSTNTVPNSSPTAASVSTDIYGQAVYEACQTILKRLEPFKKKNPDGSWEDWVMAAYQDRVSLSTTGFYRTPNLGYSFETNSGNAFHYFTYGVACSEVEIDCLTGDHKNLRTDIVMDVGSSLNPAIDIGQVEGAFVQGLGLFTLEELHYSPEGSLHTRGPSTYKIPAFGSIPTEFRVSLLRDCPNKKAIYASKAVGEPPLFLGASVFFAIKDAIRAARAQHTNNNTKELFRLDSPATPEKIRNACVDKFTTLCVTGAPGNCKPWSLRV
Experimental: The xanthine oxidase inhibitory assay was carried out using a previously reported method with slight modifications. […] This was followed by dilution with potassium phosphate buffer (0.05 M, pH 7.5) to achieve the desired concentrations. Each test solution contained 0.5% DMSO. The assay was performed in triplicates in a 96-well microplate. […] Then, 100 μL of substrate solution, xanthine (0.15 mM, pH 7.5), was added before further incubating at 25 °C for 10 min. The final assay mixture was spectrophotometrically measured at 295 nm. Xanthine oxidase inhibitory activity was expressed as the percentage of xanthine oxidase inhibition and calculated using the following formula: %Xanthine Oxidase Inhibition=A−B−C−D/A−B×100

xanthine oxidase [4] = tested on: xanthine oxidase; set-up: method as in PMID 8572586; settings: cited from earlier work
[5] = read-out: Percentage of xanthine oxidase inhibition
[6] = 100 μg/mL, read-out: Percentage of xanthine oxidase inhibition

SMILES: O=c1cc(O)c2ccccc2o1 [4-hydroxycoumarin]
mode of inhibition against xanthine oxidase (xanthine oxidase [1]): competitive inhibition

SMILES: O=c1oc2cc(O)cc(O)c2cc1-c1cccc(O)c1 [5,7-dihydroxy-3-(3-hydroxyphenyl) coumarin]
xanthine oxidase inhibitory activity relative to allopurinol (xanthine oxidase [2]): 7 fold

SMILES: Cc1cc(=O)oc2cc(O)c(O)cc12 [7-hydroxy-4-methylesculetin]
mode of inhibition against xanthine oxidase (xanthine oxidase [1]): competitive inhibition

SMILES: O=c1ccc2ccc(O)cc2o1 [7-hydroxycoumarin]
mode of inhibition against xanthine oxidase (xanthine oxidase [1]): competitive inhibition

SMILES: Oc1ncnc2[nH]ncc12 [Allopurinol, allopurinol, reference compound]
inhibition at 0.0064 µg/mL (xanthine oxidase [3]; [5]): 4.12% | inhibition at 0.032 µg/mL (xanthine oxidase [3]; [5]): 17.8% | inhibition at 0.16 µg/mL (xanthine oxidase [3]; [5]): 29.5% | inhibition at 0.8 µg/mL (xanthine oxidase [3]; [5]): 93.7% | inhibition at 4 µg/mL (xanthine oxidase [3]; [5]): 98.9% | inhibition at 20 µg/mL (xanthine oxidase [3]; [5]): 99% | inhibition at 100 µg/mL (xanthine oxidase [3]; [5]): 99.8%

inhibition at 0.39 µg/mL (xanthine oxidase [3]; 0.39 μg/mL, read-out: Percentage of xanthine oxidase inhibition): 39.6 ± 0.68% | inhibition at 0.78 µg/mL (xanthine oxidase [3]; 0.78 μg/mL, read-out: Percentage of xanthine oxidase inhibition): 54.14 ± 0.34% | inhibition at 1.56 µg/mL (xanthine oxidase [3]; 1.56 μg/mL, read-out: Percentage of xanthine oxidase inhibition): 66.49 ± 0.05% | inhibition at 3.13 µg/mL (xanthine oxidase [3]; 3.13 μg/mL, read-out: Percentage of xanthine oxidase inhibition): 76.17 ± 0.52% | inhibition at 6.25 µg/mL (xanthine oxidase [3]; [5]): 86.02 ± 0.14% | inhibition at 12.5 µg/mL (xanthine oxidase [3]; [5]): 91.75 ± 0.22% | inhibition at 25 µg/mL (xanthine oxidase [3]; [5]): 95.04 ± 0.86% | inhibition at 50 µg/mL (xanthine oxidase [3]; [5]): 96.91 ± 0.06% | IC50 (xanthine oxidase [3]): 2.79 µM
SMILES: COc1cc(O)c(C)c2c(=O)oc(O)c(C)c12 [Compound 1, 3,7-dihydroxy-5-methoxy-4,8-dimethyl-isocoumarin]

inhibition at 6.25 µg/mL (xanthine oxidase [3]; [5]): 9.11 ± 0.28% | inhibition at 12.5 µg/mL (xanthine oxidase [3]; [5]): 14.5 ± 0.45% | inhibition at 25 µg/mL (xanthine oxidase [3]; [5]): 36.31 ± 0.08% | inhibition at 50 µg/mL (xanthine oxidase [3]; [5]): 74.08 ± 0.5% | xanthine oxidase inhibitory activity (in words) (xanthine oxidase [3]; isolated compounds): low activity | IC50 (xanthine oxidase [3]): 59 µM
SMILES: COC1=CC(=O)C(O)=C(CCCCCCC/C=C\CCCCCCCC2=C(O)C(=O)C=C(OC)C2=O)C1=O [Compound 2, Ardisiaquinone A]

SMILES: CCCC/C=C\CCCCCCCCCC1=C(O)C(=O)C=C(OC)C1=O [Compound 3, Maesanin]
inhibition at 100 µg/mL (xanthine oxidase [3]; [5]): 0%

SMILES: CC[C@H](/C=C/[C@@H](C)[C@H]1CC[C@H]2[C@@H]3CC=C4C[C@@H](O)CC[C@]4(C)[C@H]3CC[C@]12C)C(C)C [Compound 4, Stigmasterol]
inhibition at 100 µg/mL (xanthine oxidase [3]; [6]): 0%

inhibition at 100 µg/mL (xanthine oxidase [3]; [6]): 0%
SMILES: CCCCCCCCCCCCCCCCCCCCCCCC [Compound 5, Tetracosane]

inhibition at 100 µg/mL (xanthine oxidase [3]; [6]): 0%
SMILES: CCCCCCCCCCCCCCCCC(=O)O [Compound 6, Margaric acid]

SMILES: O=c1ccc2cc(O)c(O)cc2o1 [Esculetin]
xanthine oxidase inhibitory activity (in words) (xanthine oxidase [4]): strong | mode of inhibition against xanthine oxidase (xanthine oxidase [1]): competitive inhibition | relative potency among selected coumarins against xanthine oxidase (xanthine oxidase [1]): most potent inhibitor

SMILES: O=c1ccc2ccccc2o1 [coumarin]
mode of inhibition against xanthine oxidase (xanthine oxidase [1]): competitive inhibition

SMILES: O=C1CCc2ccccc2O1 [dihydrocoumarin]
mode of inhibition against xanthine oxidase (xanthine oxidase [1]): competitive inhibition

SMILES: COc1cc2ccc(=O)oc2cc1O [scopoletin]
mode of inhibition against xanthine oxidase (xanthine oxidase [1]): competitive inhibition
